Laboratory results taken from publication PMC6272903, “Synthesis and Structure-Activity Relationship Analysis of 5-HT7 Receptor Antagonists: Piperazin-1-yl Substituted Unfused Heterobiaryls” (Molecules, 2016).
Several values for one entry are separate records, joined by “and”; a condition that tells them apart may be missing. Equal entries are not always repeated. Structures can show the parent of a compound that is named as a salt. Each block holds one molecule with its values, some of them ahead of it.

Tests used:
human 5-HT7b receptors = molecular target: T1, human 5-HT7b receptors (Homo sapiens, UniProt P34969); assay: 5-HT7 competition radioligand binding assay ([3H]5-CT); settings: HEK293 cells overexpressing human 5-HT7b receptors, at least two independent experiments in triplicate; for Ki: read-out: Ki ± S.D. 5-HT7 binding affinity
T1 construct: expressed in transfected cells; host or cells: HEK293
T1 sequence (P34969 1-432): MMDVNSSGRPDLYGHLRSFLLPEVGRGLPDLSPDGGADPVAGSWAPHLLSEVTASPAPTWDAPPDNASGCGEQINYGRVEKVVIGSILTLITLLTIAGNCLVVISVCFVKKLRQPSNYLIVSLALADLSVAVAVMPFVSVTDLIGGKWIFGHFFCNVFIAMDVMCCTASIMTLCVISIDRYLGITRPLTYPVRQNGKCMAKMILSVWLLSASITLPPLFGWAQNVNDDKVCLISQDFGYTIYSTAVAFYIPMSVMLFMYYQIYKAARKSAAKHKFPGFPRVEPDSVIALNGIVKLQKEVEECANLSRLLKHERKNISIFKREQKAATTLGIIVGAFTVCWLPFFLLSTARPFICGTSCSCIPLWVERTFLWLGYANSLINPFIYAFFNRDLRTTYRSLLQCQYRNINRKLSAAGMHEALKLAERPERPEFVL
Description: Novel scaffold endowed with 5-HT7R activity was identified by screening of the in-house compound library in a single compound concentration of 1 µM in a competition radioligand binding assay using [^3H]5-CT and HEK293 cells overexpressing the human 5-HT7b receptors.

5-HT7R = molecular target: T2, 5-HT7R (Homo sapiens, UniProt P34969); assay: cAMP functional test: inhibition of cAMP production induced by 5-CT (10 nM); type: cell-based; settings: for Kb: cAMP production induced by 5-CT (10 nM), HEK-293 cells expressing 5-HT7R, read-out: KB (5-HT7R antagonistic properties); for effect on 5-CT-induced cAMP accumulation: transfected HEK cells expressing 5-HT7R, 5-CT (10 nM)
T2 construct: expressed in transfected cells; host or cells: HEK293
T2 sequence (P34969 1-432): as above

dopaminergic D2 = molecular target: T3, dopaminergic D2 (Homo sapiens, UniProt P14416); assay: D2 competition binding assay ([3H]-Raclopride); settings: for Ki: [3H]-Raclopride, HEK293 cells with overexpressed receptor, read-out: Ki ± S.D. D2
T3 construct: expressed in transfected cells; host or cells: HEK293
T3 sequence (P14416 whole entry): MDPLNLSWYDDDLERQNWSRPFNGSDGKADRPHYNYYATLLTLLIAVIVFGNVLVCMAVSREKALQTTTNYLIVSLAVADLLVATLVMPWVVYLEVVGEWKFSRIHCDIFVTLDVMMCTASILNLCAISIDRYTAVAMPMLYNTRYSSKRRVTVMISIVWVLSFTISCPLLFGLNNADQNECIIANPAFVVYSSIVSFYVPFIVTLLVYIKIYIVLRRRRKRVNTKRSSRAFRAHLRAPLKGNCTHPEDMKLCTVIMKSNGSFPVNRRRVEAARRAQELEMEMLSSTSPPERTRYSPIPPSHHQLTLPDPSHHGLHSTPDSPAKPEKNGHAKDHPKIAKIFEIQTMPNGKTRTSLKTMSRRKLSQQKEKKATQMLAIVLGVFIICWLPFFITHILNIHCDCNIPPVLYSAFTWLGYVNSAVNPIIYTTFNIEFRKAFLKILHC

5-HT1A = molecular target: T4, 5-HT1A (Homo sapiens, UniProt P08908); assay: 5-HT1A competition binding assay ([3H]-8-OH-DPAT); settings: HEK293 cells with overexpressed receptor, read-out: Ki ± S.D. 5-HT1A
T4 construct: expressed in transfected cells; host or cells: HEK293
T4 sequence (P08908 1-422): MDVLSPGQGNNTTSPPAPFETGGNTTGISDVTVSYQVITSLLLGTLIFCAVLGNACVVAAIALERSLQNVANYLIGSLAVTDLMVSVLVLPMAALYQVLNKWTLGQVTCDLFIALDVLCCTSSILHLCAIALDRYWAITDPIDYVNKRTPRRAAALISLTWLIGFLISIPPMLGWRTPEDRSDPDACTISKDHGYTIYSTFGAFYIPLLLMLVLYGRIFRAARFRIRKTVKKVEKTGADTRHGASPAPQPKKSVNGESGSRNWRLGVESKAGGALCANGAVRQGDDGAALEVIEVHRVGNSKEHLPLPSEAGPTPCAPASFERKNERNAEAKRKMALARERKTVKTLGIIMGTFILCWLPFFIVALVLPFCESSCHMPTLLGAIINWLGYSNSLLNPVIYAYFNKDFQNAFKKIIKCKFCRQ

5-HT2A = molecular target: T5, 5-HT2A (Homo sapiens, UniProt P28223); assay: 5-HT2A competition binding assay ([3H]-Ketanserin); settings: CHO cells with overexpressed receptor, read-out: Ki ± S.D. 5-HT2A
T5 construct: expressed in transfected cells; host or cells: CHO
T5 sequence (P28223 whole entry, species assumed): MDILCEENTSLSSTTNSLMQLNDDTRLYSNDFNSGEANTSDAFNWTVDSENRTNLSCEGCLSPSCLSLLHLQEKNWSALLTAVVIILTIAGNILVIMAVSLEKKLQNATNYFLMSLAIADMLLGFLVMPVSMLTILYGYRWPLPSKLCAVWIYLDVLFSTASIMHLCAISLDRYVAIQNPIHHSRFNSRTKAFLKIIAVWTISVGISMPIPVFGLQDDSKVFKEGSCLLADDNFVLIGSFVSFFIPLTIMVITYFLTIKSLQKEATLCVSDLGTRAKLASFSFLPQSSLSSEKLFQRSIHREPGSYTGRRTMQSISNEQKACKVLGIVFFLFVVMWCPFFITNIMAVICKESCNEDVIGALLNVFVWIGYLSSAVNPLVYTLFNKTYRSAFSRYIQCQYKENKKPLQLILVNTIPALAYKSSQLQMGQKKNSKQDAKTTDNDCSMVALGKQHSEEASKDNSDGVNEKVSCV

5-HT6 = molecular target: T6, 5-HT6 (Homo sapiens, UniProt P50406); assay: 5-HT6 competition binding assay ([3H]-LSD); settings: for Ki: [3H]-LSD, HEK293 cells with overexpressed receptor, read-out: Ki ± S.D. 5-HT6
T6 construct: expressed in transfected cells; host or cells: HEK293
T6 sequence (P50406 whole entry, species assumed): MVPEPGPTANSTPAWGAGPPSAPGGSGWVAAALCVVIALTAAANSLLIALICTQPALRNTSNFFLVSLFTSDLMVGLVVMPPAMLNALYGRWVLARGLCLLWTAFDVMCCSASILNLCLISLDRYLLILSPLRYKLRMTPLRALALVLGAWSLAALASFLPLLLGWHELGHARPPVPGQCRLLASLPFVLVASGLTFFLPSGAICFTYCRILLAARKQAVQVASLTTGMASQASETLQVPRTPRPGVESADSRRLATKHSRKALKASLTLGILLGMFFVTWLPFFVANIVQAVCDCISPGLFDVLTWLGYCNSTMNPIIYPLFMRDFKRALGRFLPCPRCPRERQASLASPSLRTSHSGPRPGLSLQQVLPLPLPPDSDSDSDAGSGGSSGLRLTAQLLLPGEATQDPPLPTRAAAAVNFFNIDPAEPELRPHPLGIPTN

melting point: 179 to 180 °C
Compound: CCCCc1cc(-c2ccoc2)nc(N2CCN(C)CC2)n1 (as salt: hydrobromid) [Compound 13, 4-(n-Butyl)-6-(3-furyl)-2-(4-methylpiperazin-1-yl)pyrimidine]

melting point: > 300 °C
Compound: CN1CCN(c2nc(-c3ccoc3)cc(C(F)(F)F)n2)CC1 (as salt: hydrochloride) [Compound 16, 4-(3-Furyl)-2-(4-methylpiperazin-1-yl)-6-(trifluoromethyl)pyrimidine]

melting point: 176 to 177 °C
Compound: CN1CCCN(c2nccc(-c3ccoc3)n2)CC1 (as salt: hydrobromid) [Compound 42, 4-(3-Furyl)-2-(4-methylhomopiperazin-1-yl)pyrimidine]

melting point: 287 to 288 °C
Compound: CCc1cc(-c2ccoc2)nc(N2CCN(C)CC2)n1 (as salt: hydrobromid) [Compound 12, 4-Ethyl-6-(3-furyl)-2-(4-methylpiperazin-1-yl)pyrimidine]

melting point: 241 to 242 °C
Compound: c1cc(-c2ccoc2)nc(N2CCNCC2)n1 (as salt: hydrobromid) [Compound 1, 4-(3-Furyl)-2-(piperazin-1-yl)pyrimidine]

Ki (human 5-HT7b receptors): 1.6 ± 0.2 nM
Kb (5-HT7R): 60 nM
effect on 5-CT-induced cAMP accumulation (5-HT7R): dose-dependently decrease
fold more active than 12 at D2 receptors (dopaminergic D2; 13 versus 12): 13 fold
Ki (dopaminergic D2): 37 ± 4 nM
Ki (5-HT1A): 637 ± 53 nM
Ki (5-HT2A): 12 nM and 10 nM
fold more active than 12 at 5-HT6 (5-HT6; 13 versus 12): 10 fold
Ki (5-HT6): 12 ± 2 nM
Compound: CCCCc1cc(-c2ccoc2)nc(N2CCN(C)CC2)n1 [Compound 13, 4-(n-Butyl)-6-(3-furyl)-2-(4-methylpiperazin-1-yl)pyrimidine]

melting point: 275 °C (dec.)
Compound: Cc1cc(-c2ccnc(N3CCN(C)CC3)n2)co1 (as salt: hydrobromid) [Compound 24, 4-(5-Methyl-3-furyl)-2-(4-methylpiperazin-1-yl)pyrimidine]

melting point: > 200 °C (dec.)
Compound: c1cc(-c2ccoc2)nc(N2CC[N+]3(CCOCC3)CC2)n1 (as salt: iodide) [Compound 47, 4-[4-(3-Furyl)pyrimidin-2-yl]piperazine-1-spiro-1-morpholinium iodide]

Ki (human 5-HT7b receptors): 7.1 ± 1.4 nM
Kb (5-HT7R): 12 nM
effect on 5-CT-induced cAMP accumulation (5-HT7R): dose-dependently decrease
Ki (dopaminergic D2): 466 ± 39 nM
Ki (5-HT1A): 1500 ± 164 nM
Ki (5-HT2A): 10 nM and 12 nM
Ki (5-HT6): 121 ± 14 nM
Compound: CCc1cc(-c2ccoc2)nc(N2CCN(C)CC2)n1 [Compound 12, 4-Ethyl-6-(3-furyl)-2-(4-methylpiperazin-1-yl)pyrimidine]

Ki ± S.D. 5-HT7 binding affinity (human 5-HT7b receptors): no affinity
Ki (human 5-HT7b receptors): > 10000 nM
melting point: 58 to 59 °C
Compound: c1cc(-c2ccoc2)nc(N2CCOCC2)n1 [Compound 44]

melting point: > 280 °C
Compound: c1ccc(CN2CCN(c3nccc(-c4ccoc4)n3)CC2)cc1 (as salt: hydrobromid) [Compound 5, 2-(4-Benzylpiperazin-1-yl)-4-(3-furyl)pyrimidine]

melting point: 203 °C (dec.)
Compound: CCCCc1nc(N2CCN(C)CC2)nc(-c2ccoc2)c1CCC (as salt: hydrobromid) [Compound 22, 4-n-Butyl-6-(3-furyl)-2-(4-methylpiperazino)-5-propylpyrimidine]

melting point: 132 to 134 °C
Compound: Cc1cc(-c2cccs2)cc(N2CCN(C)CC2)n1 (as salt: hydrobromid) [Compound 56, 2-Methyl-6-(4-methylpiperazin-1-yl)-4-(2-thienyl)pyridine]

effect on 5-CT-induced cAMP accumulation (5-HT7R): dose-dependently decrease
Compound: CC1CCN(CC[C@H]2CCCN2S(=O)(=O)c2cccc(O)c2)CC1 [SB-269970, (2R)-1-((3-hydroxyphenyl)sulfonyl)-2-(2-(4-methyl-1-piperidinyl)ethyl)pyrrolidine, reference compound]

melting point: 263 to 265 °C
Compound: Cc1ccc(-c2ccnc(N3CCN(C)CC3)n2)o1 (as salt: hydrobromid) [Compound 29, 4-(5-Methyl-2-furyl)-2-(4-methylpiperazin-1-yl)pyrimidine]
